For 11 compounds, IC50 results are on record in patent US8269026B2, “Lupane derivatives useful for treating HIV” (priority 2008, dated 2012).

Structures are written as SMILES.

For the assay, the system named is HIV-1 (HIVIIIB) replication in MT2 cell line. Kind of assay: HIV-1 replication in MT2 cell line with and without 30% human serum (viral RT activity in supernatant). Type of assay: cell-based. The following applies: Human immunodeficiency virus 1, MT2 cells, with 30% human serum, average IC50 if tested more than once, read-out: MT2 (HIVIIIB) with HS 30% IC50 range. The protocol: HIV-1 Replication in MT2 cell line with and without 30% human serum: The cells are infected at a Multiciplicity of Infection (MOI) of 0.5 for 3 h and then washed twice with complete media to remove residual virus. Cells are then resuspended at 0.5×10^6/ml in complete medium (RPMI, 10% FBS, 1% sodium pyruvate), and seeded into 96-well plates (6.25×10^4/well). The cells are cultured in the presence or absence of various concentrations of test compounds in serial dilutions for 3 days at 37° C. The test compounds are serially diluted in complete medium supplemented or not with 30% human serum. After 3 days, 100 μL of cultured medium with cells are replaced with 120 μL of freshly diluted test compounds in complete medium containing or not 30% Human serum. The level of HIV-1 replication is determined at days 5 after infection by the presence of viral RT activity in harvested supernatant fluid. The IC50 and IC90 values for the virus replication are determined by using GRAPHPAD PRISM software.
The IC50 of the compounds tested in accordance with the HIV replication activity assay MT2 (HIVIIIB) are represented in Table 1.
`CC(C)C1=C2C3CCC4[C@@]5(C)CC[C@H](OC(=O)CC(C)(C)C(=O)O)C(C)(C)C5CC[C@@]4(C)[C@]3(C)CC[C@@]2(NC(=O)NCc2ccccn2)CC1=O` (stereo partly drawn) [17-27, 3β-O-(3′,3′-Dimethylsuccinyl)-17β-[N′-(pyridin-2-ylmethyl)ureido]-21-oxolup-18-ene]: the IC50 was < 0.199 µM.

As to `CC(C)C1=C2C3CCC4[C@@]5(C)CC[C@H](OC(=O)CC(C)(C)C(=O)O)C(C)(C)C5CC[C@@]4(C)[C@]3(C)CC[C@@]2(NC(=O)NCC2CCN(C)CC2)CC1=O` (stereo partly drawn) [17-28, 3β-O-(3′,3′-Dimethylsuccinyl)-17β-[N′-(1-methyl-piperidin-4-ylmethyl)-ureido]-21-oxolup-18-ene], the half-inhibitory concentration (IC50) was > 1 µM. For `CC(C)C1=C2[C@H]3CC[C@@H]4[C@@]5(C)CC[C@H](OC(=O)CC(C)(C)C(=O)O)C(C)(C)[C@@H]5CC[C@@]4(C)[C@]3(C)CC[C@@]2(NC(=O)N2CCN(C(C)C)CC2)CC1=O` [17-29, 3β-O-(3′,3′-Dimethylsuccinyl)-17β-[(4-isopropyl-piperazine-1-carbonyl)-amino]-21-oxolup-18-ene], the IC50 is < 0.199 µM. In the case of `CC(C)C1=C2C3CCC4[C@@]5(C)CC[C@H](OC(=O)CC(C)(C)C(=O)O)C(C)(C)C5CC[C@@]4(C)[C@]3(C)CC[C@@]2(NC(=O)NC2CCN(C)CC2)CC1=O` (stereo partly drawn) [17-30, 3β-O-(3′,3′-Dimethylsuccinyl)-17β-[N′-(1-methyl-piperidin-4-yl)-ureido]-21-oxolup-18-ene], the IC50 was < 0.199 µM. With `CC(C)C1=C2C3CCC4[C@@]5(C)CC[C@H](OC(=O)CC(C)(C)C(=O)O)C(C)(C)C5CC[C@@]4(C)[C@]3(C)CC[C@@]2(NC(=O)NCc2ccncc2)CC1=O` (stereo partly drawn) [17-31, 3β-O-(3′,3′-Dimethylsuccinyl)-17β-[N′-(pyridin-4-ylmethyl)ureido]-21-oxolup-18-ene] the figure was < 0.199 µM; with `CC(C)C1=C2[C@H]3CC[C@@H]4[C@@]5(C)CC[C@H](OC(=O)CC(C)(C)C(=O)O)C(C)(C)[C@@H]5CC[C@@]4(C)[C@]3(C)CC[C@@]2(NC(=O)Nc2ncccn2)CC1=O` [17-32, 3β-O-(3′,3′-Dimethylsuccinyl)-17β-(N′-pyrimidin-2-yl-ureido)-21-oxolup-18-ene], < 0.199 µM; with `CC(C)C1=C2[C@H]3CC[C@@H]4[C@@]5(C)CC[C@H](OC(=O)CC(C)(C)C(=O)O)C(C)(C)[C@@H]5CC[C@@]4(C)[C@]3(C)CC[C@@]2(NC(=O)NC2CN(C(=O)OC(C)(C)C)C2)CC1=O` [17-33, 3β-O-(3′,3′-Dimethylsuccinyl)-17β-[N′-(1-tert-butyloxycarbonyl-azetidin-3-yl)-ureido]-21-oxolup-18-ene], < 0.199 µM. The value for `CC(C)C1=C2[C@H]3CC[C@@H]4[C@@]5(C)CC[C@H](OC(=O)CC(C)(C)C(=O)O)C(C)(C)[C@@H]5CC[C@@]4(C)[C@]3(C)CC[C@@]2(NC(=O)NC[C@@H]2CCCN2C(=O)OC(C)(C)C)CC1=O` [17-34, 3β-O-(3′,3′-Dimethylsuccinyl)-17β-[(3-(S)-1-tert-butyloxycarbonyl-pyrrolidin-2-ylmethyl)-ureido]-21-oxolup-18-ene] was < 0.199 µM. The value for `CC(C)C1=C2[C@H]3CC[C@@H]4[C@@]5(C)CC[C@H](OC(=O)CC(C)(C)C(=O)O)C(C)(C)[C@@H]5CC[C@@]4(C)[C@]3(C)CC[C@@]2(NC(=O)NC2CNC2)CC1=O` [17-35] was 0.2 to 0.999 µM; that for `CC(C)C1=C2C3CCC4[C@@]5(C)CC[C@H](OC(=O)CC(C)(C)C(=O)O)C(C)(C)C5CC[C@@]4(C)[C@]3(C)CC[C@@]2(NC(=O)N2CCC(N(C)C(=O)OC(C)(C)C)CC2)CC1=O` (stereo partly drawn) [17-36, 3β-O-(3′,3′-Dimethylsuccinyl)-17β-[(4-(tert-butyloxycarbonyl-methyl-amino)-piperidine-1-carbonyl)-amino]-21-oxolup-18-ene] was < 0.199 µM.

For `CC(C)C1=C2[C@H]3CC[C@@H]4[C@@]5(C)CC[C@H](OC(=O)CC(C)(C)C(=O)O)C(C)(C)C5CC[C@@]4(C)[C@]3(C)CC[C@@]2(NC(=O)Nc2cnn(C)c2)CC1=O` (stereo partly drawn) [17-37, 3β-O-(3′,3′-Dimethylsuccinyl)-17β-[N′-(1-methyl-1H-pyrazol-4-yl)ureido]-21-oxolup-18-ene], the IC50 was < 0.199 µM.
